{"source": "paper PMC5175396", "about": "“Cytotoxicity of Plumbagin, Rapanone and 12 other naturally occurring Quinones from Kenyan Flora towards human carcinoma cells” (BMC Pharmacology & Toxicology, 2016)", "key": {"[1]": {"system": "caspase 9 in MCF-7 cells", "experiment": "Caspase-Glo 9 assay", "assay_type": "cell-based, human", "settings": "IC50 and 2-fold IC50, 6 h (data not shown)", "description": "(§1) Caspases activity in MCF-7 cells was detected using Caspase-Glo 3/7 and Caspase-Glo 9 Assay kits (Promega, Mannheim, Germany) as previously reported. […] Luminescence was measured using an BioTek Synergy™ HT multi-detection microplate reader. Caspase activity was expressed as percentage of the untreated control."}, "[2]": {"system": "six tested cancer cell lines (A549, SPC212, DLD-1, Caco-2, MCF-7, HepG2)", "experiment": "Neutral red uptake assay, statements over the six tested cancer cell lines", "assay_type": "cell-based, human", "description": "(§2) Six human cancer cell lines and one normal cell line were used in this study. They included A549 human non-small cell lung cancer (NSCLC) cell line, obtained from the Institute for Fermentation, Osaka (IFO, Japan) and provided by Prof. Dr. Tansu Koparal (Anadolu University, Eskisehir, Turkey), SPC212 human mesothelioma cell line obtained from American Type Culture Collection (ATCC) and provided by Dr. Asuman Demiroğlu Zergeroğlu (Gebze Technical University, Kocaeli, Turkey), DLD-1 colorectal adenocarcinoma cell lines obtained from ATCC (CCL-221), Caco2 colorectal adenocarcinoma cells (ATCC, HTB-37) obtained from the ŞAP Institute of Turkey (Ankara), HepG2 hepatocarcinoma cells (ATCC, HB-8065) and MCF-7 breast adenocarcinoma cells (ATCC, HTB-22) were provided by Prof. Dr. Tansu Koparal (Anadolu University, Eskisehir, Turkey). The normal CRL2120 human skin fibroblasts were obtained from ATCC [CCD1094Sk (ATCC, CRL-2120)]. The cells were maintained as a monolayer in DMEM medium (Sigma-aldrich, Munich, Germany) medium supplemented with 10% fetal calf serum and 1% penicillin (100 U/mL)-streptomycin (100 μg/mL) in a humidified 5% CO2 atmosphere at 37 °C.\n(§3) The cytotoxicity of samples was performed by NR uptake assay as previously described. This method is based on the ability of viable cells to incorporate and bind the supravital dye NR in the lysosomes. The procedure is cheaper and more sensitive than other cytotoxicity tests. […] Briefly, cells were detached by treatment with 0.25% trypsin/EDTA (Invitrogen) and an aliquot of 1 × 10^4 cells was placed in each well of a 96-well cell culture plate […]. The cells were allowed to attach overnight and subsequently treated with different concentrations of the 14 compounds. Each of the studied samples was immediately added in varying concentrations in additional 100 μL of culture medium to obtain a total volume of […]/well. After 72 h incubation in humidified 5% CO2 atmosphere at 37 °C, the medium was removed and 200 μL fresh medium containing 50 μg/mL NR was added to each well and incubation continued for an additional 3 h at 37 °C in 5% CO2 atmosphere. The dye medium was then removed and each well was then washed rapidly with 200 μL phosphate buffer saline (PBS) followed by addition of 200 μL of acetic acid-water-ethanol in water (1:49:50). The plates were kept for 15 min at room temperature to extract the dye and then shaken for a few minutes on a GFL 3012 shaker (Gesellschaft für Labortechnik mbH, Burgwedel, Germany). Absorbance was measured on ELx 808 Ultra Microplate Reader (Biotek) equipped with a 540 nm filter. Each assay was done at least three times, with three replicates each. The viability was evaluated based on a comparison with untreated cells. The IC50 values represent the sample’s concentrations required to inhibit 50% of cell proliferation and were calculated from a calibration curve by linear regression using Microsoft Excel."}, "[3]": {"system": "caspase 3/7 in MCF-7 cells", "experiment": "Caspase-Glo 3/7 assay", "assay_type": "cell-based, human", "settings": "IC50 and 2-fold IC50, 6 h (data not shown)", "description": "as §1"}, "[4]": {"system": "MCF-7 cells", "experiment": "Measurement of reactive oxygen species (ROS), DCFH-DA", "assay_type": "cell-based, human", "settings": "at IC50, 24 h", "description": "This is a cell-based assay for measuring hydroxyl, peroxyl, or other reactive oxygen species activity within a cell. The assay employs the cell-permeable fluorogenic probe 2′,7′-dichlorodihydrofluorescin diacetate (DCFH-DA). DCFH-DA is diffused into cells and is deacetylated by cellular esterases to non-fluorescent 2′,7′-dichlorodihydrofluorescin (DCFH), which is rapidly oxidized to highly fluorescent 2′,7′-dichlorofluorescein (DCF) by ROS. […] After addition of 100 μL 1× DCFH-DA/DMEM solution to cells and incubation at 37 °C for 30–60 min, the fluorescence was measured using SpectraMax® M5 Microplate Reader (Molecular Devices, Biberach, Germany) at 480/530 nm. All experiments were performed at least in triplicate."}, "[5]": {"system": "MCF-7 cells", "experiment": "Flow cytometry cell cycle analysis and detection of apoptotic cells", "assay_type": "cell-based, human", "settings": "for Sub-G0/G1 (apoptotic) cells, % of cells: non-treated cells 3.1%; for cell cycle arrest: ¼ × IC50 to IC50, 72 h", "description": "The cell-cycle analysis was performed by flow cytometry using BD cycletest^TM Plus DNA Kit Assay (BD Biosciences, San Jose, USA). The BD Cycletest™ Plus DNA kit provides a set of reagents for isolating and staining cell nuclei. Flow cytometric analysis of differentially stained cells is used to estimate the DNA index (DI) and cell-cycle phase distributions. Briefly, MCF-7 cells (3 mL, 1 × 10^5 cells/mL) were seeded into each well of 6-well plates and allowed to attach for 24 h. […] The untreated cells (control) were also included in the assay. They were further trypsinized and suspended in 1 mL PBS, then centrifuged at 400 g for 5 min at room temperature (RT). The cells were further processed according to the manufacturer protocol: addition of 250 μL of solution A (trypsin buffer), 10 min incubation at RT followed by the addition of 200 μL of solution B (trypsin inhibitor and RNAse buffer), 10 min incubation at RT followed by the addition of 200 μL of solution C (2–8 °C) (propidium iodide stain solution), 10 min on ice. The cells were further measured on a BD FACS Aria I Cell Sorter Flow Cytometer (Becton-Dickinson, Germany). For each sample, 10^4 cells were counted. For PI excitation, an argon-ion laser emitting at 488 nm was used. Cytographs were analyzed using BD FACSDiva™ Flow Cytometry Software Version 6.1.2 (Becton-Dickinson)."}, "[6]": {"system": "MCF-7 breast adenocarcinoma cells", "experiment": "Neutral red (NR) uptake cytotoxicity assay, MCF-7", "assay_type": "cell-based, human", "settings": "for IC50: Homo sapiens, MCF7, 72 h, neutral red assay, 72 h incubation, read-out: IC50 MCF-7; for selectivity index MCF-7: IC50 in CRL2120 normal fibroblasts divided by IC50 in MCF-7", "description": "as §2, §3"}, "[7]": {"system": "SPC212 human mesothelioma cell line", "experiment": "Neutral red (NR) uptake cytotoxicity assay, SPC212", "assay_type": "cell-based", "settings": "for selectivity index SPC212: IC50 in CRL2120 normal fibroblasts divided by IC50 in SPC212", "description": "as §2, §3"}}}
{"compound": "CCCCCCCCCCCCCC1=C(O)C(=O)C=C(O)C1=O", "note": "[Compound 9, 2,5-dihydroxy-3-tridecyl-2,5-cyclohexadiene-1,4-dione]", "values": [{"measurement": "activity of caspase 9", "setting": "[1]", "value": "no modification"}, {"measurement": "IC50", "setting": "[2]; Homo sapiens, bound valid for all six cancer cell lines, neutral red assay", "value": "< 100000", "unit": "nM"}, {"measurement": "activity of caspase 3/7", "setting": "[3]", "value": "no modification"}, {"measurement": "increase in ROS levels as compared with non-treated cells", "setting": "[4]", "value": "less than 2 fold"}, {"measurement": "Sub-G0/G1 (apoptotic) cells, % of cells", "setting": "[5]; 1/4xIC50, 72 h", "value": 34.8, "unit": "%"}, {"measurement": "Sub-G0/G1 (apoptotic) cells, % of cells", "setting": "[5]; IC50, 72 h", "value": 43.2, "unit": "%"}, {"measurement": "cell cycle arrest", "setting": "[5]", "value": "cell cycle arrest between G0/G1 and S phases"}, {"measurement": "IC50", "setting": "[6]", "value": "16900 ± 4650", "unit": "nM"}, {"measurement": "selectivity index MCF-7", "setting": "[6]", "value": 5.62}, {"measurement": "selectivity index SPC212", "setting": "[7]", "value": 41.96}]}
{"compound": "CC1=CC(=O)c2c(O)cccc2C1=O", "note": "[Compound 4, 5-hydroxy-2-methyl-1,4-naphthalenedione]", "values": [{"measurement": "activity of caspase 9", "setting": "[1]", "value": "no modification"}, {"measurement": "selectivity indexes (CRL2120 vs carcinoma cells), lower bound over the cancer cell lines", "setting": "[2]; IC50 CRL2120 / IC50 cancer cell line", "value": "> 59"}, {"measurement": "activity of caspase 3/7", "setting": "[3]", "value": "no modification"}, {"measurement": "increase in ROS levels as compared with non-treated cells", "setting": "[4]", "value": "more than 3 fold"}, {"measurement": "Sub-G0/G1 (apoptotic) cells, % of cells", "setting": "[5]; 1/4xIC50, 72 h", "value": 10.4, "unit": "%"}, {"measurement": "Sub-G0/G1 (apoptotic) cells, % of cells", "setting": "[5]; IC50, 72 h", "value": 20.4, "unit": "%"}, {"measurement": "cell cycle arrest", "setting": "[5]", "value": "cell cycle arrest between G0/G1 and S phases"}, {"measurement": "IC50", "setting": "[6]", "value": "60 ± 10", "unit": "nM"}, {"measurement": "selectivity index MCF-7", "setting": "[6]", "value": 1127.67}, {"measurement": "IC50", "setting": "[7]; Homo sapiens, 72 h, neutral red assay, 72 h incubation, read-out: IC50 SPC212", "value": "270 ± 10", "unit": "nM"}, {"measurement": "selectivity index SPC212", "setting": "[7]", "value": 250.59}]}
